# Source: ChEMBL document CHEMBL6109045, “Photosensitizer associated with efflux pump inhibitors as a strategy for photodynamic therapy against bacterial resistance” (2025)
# Columns and labels:
# Escherichia coli [1] = experiment: Antibacterial activity against Escherichia coli ATCC 25922 assessed as reduction in bacterial growth at 20 uM in presence of 100 J/cm2 light irradiation by photosensitization assay; format: functional
# Staphylococcus aureus [2] = experiment: Antibacterial activity against Staphylococcus aureus ATCC 25923 assessed as reduction in bacterial growth at 20 uM in presence of 100 J/cm2 light irradiation by photosensitization assay; format: functional
# Escherichia coli [3] = experiment: Antibacterial activity against Escherichia coli K12 assessed as reduction in bacterial growth at 20 uM in presence of 6 J/cm2 light irradiation by photosensitization assay; format: functional
# Acinetobacter baumannii [4] = experiment: Antibacterial activity against Acinetobacter baumannii ATCC 17978 assessed as reduction in bacterial growth at 20 uM in presence of 6 J/cm2 light irradiation by photosensitization assay; format: functional
# Staphylococcus aureus [5] = experiment: Antibacterial activity against methicillin-resistant Staphylococcus aureus ATCC 33591 assessed as reduction in bacterial growth at 20 uM in presence of 6 J/cm2 light irradiation by photosensitization assay; format: functional
# Acinetobacter baumannii [6] = experiment: Antibacterial activity against Acinetobacter baumannii ATCC 17978 assessed as reduction in bacterial growth at 2 uM in presence of 22.5 J/cm2 light irradiation by photosensitization assay; format: functional
# Acinetobacter baumannii [7] = experiment: Antibacterial activity against Acinetobacter baumannii ATCC 17978 assessed as reduction in bacterial growth at 10 uM in presence of 22.5 J/cm2 light irradiation by photosensitization assay; format: functional
# Pseudomonas aeruginosa [8] = experiment: Antibacterial activity against Pseudomonas aeruginosa ATCC 27853 assessed as reduction in bacterial growth at 10 uM in presence of 100 J/cm2 light irradiation by photosensitization assay; format: functional
# Pseudomonas aeruginosa [9] = experiment: Antibacterial activity against Pseudomonas aeruginosa ATCC 27853 assessed as reduction in bacterial growth at 60 ug/ml in presence of 100 J/cm2 light irradiation by photosensitization assay; format: functional; settings: dose 60 µg/ml
# Staphylococcus aureus [10] = experiment: Antibacterial activity against Staphylococcus aureus ATCC 29213 assessed as reduction in bacterial growth at 300 ug/ml in presence of 12 J/cm2 light irradiation by photosensitization assay; format: functional; settings: dose 300 µg/ml
# Escherichia coli [11] = experiment: Antibacterial activity against Escherichia coli assessed as reduction in bacterial growth at 100 uM in presence of 100 J/cm2 light irradiation by photosensitization assay; format: functional
# Escherichia coli [12] = experiment: Antibacterial activity against Escherichia coli assessed as reduction in bacterial growth at 20 uM in presence of 80 J/cm2 light irradiation by photosensitization assay; format: functional, organism-based
# Staphylococcus aureus [13] = experiment: Antibacterial activity against Staphylococcus aureus ATCC 29213 assessed as reduction in bacterial growth at 5 uM in presence of 18 J/cm2 light irradiation by photosensitization assay; format: functional
# Enterococcus faecalis [14] = experiment: Antibacterial activity against Staphylococcus aureus ATCC 29212 assessed as reduction in bacterial growth at 14 uM in presence of 25 J/cm2 light irradiation by photosensitization assay; format: functional
# Staphylococcus aureus [15] = experiment: Antibacterial activity against Staphylococcus aureus assessed as reduction in bacterial growth at 200 ug/ml in presence of 180 J/cm2 light irradiation by photosensitization assay; format: functional; settings: dose 200 µg/ml
# Staphylococcus aureus [16] = experiment: Antibacterial activity against methicillin-resistant Staphylococcus aureus ATCC 33591 assessed as reduction in bacterial growth at 1 uM in presence of 8 J/cm2 light irradiation by photosensitization assay; format: functional
# Staphylococcus aureus [17] = experiment: Antibacterial activity against methicillin-resistant Staphylococcus aureus ATCC 33591 assessed as reduction in bacterial growth at 8 uM in presence of 30 J/cm2 light irradiation by photosensitization assay; format: functional
# Staphylococcus aureus [18] = experiment: Antibacterial activity against Staphylococcus aureus ATCC 29213 assessed as reduction in bacterial growth at 8 uM in presence of 30 J/cm2 light irradiation by photosensitization assay; format: functional
# Escherichia coli [19] = experiment: Antibacterial activity against Escherichia coli assessed as reduction in bacterial growth at 8 uM in presence of 30 J/cm2 light irradiation by photosensitization assay; format: functional
# Staphylococcus aureus [20] = experiment: Antibacterial activity against Staphylococcus aureus ATCC 29213 assessed as reduction in bacterial growth at 0.25 uM in presence of 8 J/cm2 light irradiation by photosensitization assay; format: functional
# Staphylococcus aureus [21] = experiment: Antibacterial activity against Staphylococcus aureus MCC 2408 assessed as reduction in bacterial growth at 0.62 ug/ml in presence of 18 J/cm2 light irradiation by photosensitization assay; format: functional; settings: dose 0.62 µg/ml
# Pseudomonas aeruginosa [22] = experiment: Antibacterial activity against Pseudomonas aeruginosa ATCC 27853 assessed as reduction in bacterial growth at 16 uM in presence of 54 J/cm2 light irradiation by photosensitization assay; format: functional
# Pseudomonas aeruginosa [23] = experiment: Antibacterial activity against Pseudomonas aeruginosa ATCC 27853 assessed as reduction in bacterial growth at 400 uM in presence of 72 J/cm2 light irradiation by photosensitization assay; format: functional
# Pseudomonas aeruginosa [24] = experiment: Antibacterial activity against Pseudomonas aeruginosa ATCC 27853 assessed as reduction in bacterial growth at 10 to 20 ug/ml in presence of 18 J/cm2 light irradiation by photosensitization assay; format: functional; settings: dose 10-20 µg/ml
# Pseudomonas aeruginosa [25] = experiment: Antibacterial activity against Pseudomonas aeruginosa ATCC 27853 assessed as reduction in bacterial growth at 7000 ug/ml in presence of 18 J/cm2 light irradiation by photosensitization assay; format: functional; settings: dose 7000 µg/ml
# Staphylococcus aureus [26] = experiment: Antibacterial activity against Staphylococcus aureus MCC 2408 assessed as reduction in bacterial growth at 400 uM in presence of 72 J/cm2 light irradiation by photosensitization assay; format: functional
# Staphylococcus aureus [27] = experiment: Antibacterial activity against Staphylococcus aureus MCC 2408 assessed as reduction in bacterial growth at 50 ug/ml in presence of 58.49 J/cm2 light irradiation by photosensitization assay; format: functional; settings: dose 50 µg/ml
# Enterococcus faecalis [28] = experiment: Antibacterial activity against Enterococcus faecalis assessed as reduction in bacterial growth at 16 uM in presence of 54 J/cm2 light irradiation by photosensitization assay; format: functional
# Staphylococcus aureus [29] = experiment: Antibacterial activity against Staphylococcus aureus […] assessed as reduction in bacterial growth at 64 ug/ml in presence of 18 J/cm2 light irradiation by photosensitization assay; format: functional; settings: dose 64 µg/ml
# Staphylococcus aureus [30] = experiment: Antibacterial activity against Staphylococcus aureus MCC 2408 assessed as reduction in bacterial growth at 16 uM in presence of 54 J/cm2 light irradiation by photosensitization assay; format: functional
# Staphylococcus aureus [31] = experiment: Antibacterial activity against Staphylococcus aureus assessed as reduction in bacterial growth at 20 uM in presence of 80 J/cm2 light irradiation by photosensitization assay; format: functional
# Klebsiella aerogenes = experiment: Antibacterial activity against Klebsiella aerogenes assessed as reduction in bacterial growth at 16 uM in presence of 54 J/cm2 light irradiation by photosensitization assay; format: functional
# Staphylococcus aureus [32] = experiment: Antibacterial activity against Staphylococcus aureus ATCC 25923 assessed as reduction in bacterial growth at 50 ug/ml in presence of 58.49 J/cm2 light irradiation by photosensitization assay; format: functional; settings: dose 50 µg/ml
# Acinetobacter baumannii [33] = experiment: Antibacterial activity against Acinetobacter baumannii ATCC BAA 747 assessed as reduction in bacterial growth at 2 uM in presence of 22.5 J/cm2 light irradiation by photosensitization assay; format: functional
# Staphylococcus aureus [34] = experiment: Antibacterial activity against Staphylococcus aureus ATCC 25923 assessed as reduction in bacterial growth in presence of 6 J/cm2 light irradiation by photosensitization assay; format: functional
# Pseudomonas aeruginosa [35] = experiment: Antibacterial activity against Pseudomonas aeruginosa ATCC 27853 assessed as reduction in bacterial growth at 50 ug/ml in presence of 97.65 J/cm2 light irradiation by photosensitization assay; format: functional; settings: dose 50 µg/ml
# Escherichia coli [36] = experiment: Antibacterial activity against Escherichia coli ATCC 25922 assessed as reduction in bacterial growth in presence of 6 J/cm2 light irradiation by photosensitization assay; format: functional
# Pseudomonas aeruginosa [37] = experiment: Antibacterial activity against Pseudomonas aeruginosa ATCC 27853 assessed as reduction in bacterial growth at 50 ug/ml in presence of 58.4 J/cm2 light irradiation by photosensitization assay; format: functional; settings: dose 50 µg/ml
# Staphylococcus aureus [38] = experiment: Antibacterial activity against Staphylococcus aureus ATCC 25923 assessed as reduction in bacterial growth at 5 ug/ml in presence of 97.65 J/cm2 light irradiation by photosensitization assay; format: functional; settings: dose 5 µg/ml
# Bacillus subtilis = experiment: Antibacterial activity against Bacillus subtilis assessed as reduction in bacterial growth at 2 uM in presence of 22.5 J/cm2 light irradiation by photosensitization assay; format: functional
structure (smiles),measurement,setting,value
O=S(=O)(O)c1ccc(-c2c3nc(c(-c4ccc(S(=O)(=O)O)cc4)c4ccc([nH]4)c(-c4ccc(S(=O)(=O)O)cc4)c4nc(c(-c5ccc(S(=O)(=O)O)cc5)c5ccc2[nH]5)C=C4)C=C3)cc1,log(activity),Escherichia coli [1],7
same,log(activity),Staphylococcus aureus [2],7
CN(CCCOc1ccccc1NC(=O)Nc1ccc2ccccc2c1)CCN(C)c1ccc2nc3ccc(N(C)C)cc3[s+]c2c1.[Cl-],log(activity),Escherichia coli [3],3
same,log(activity),Acinetobacter baumannii [4],3
same,log(activity),Staphylococcus aureus [5],4
C1=Cc2nc1c(-c1ccccc1)c1ccc([nH]1)c(-c1ccccc1)c1nc(c(-c3ccccc3)c3ccc([nH]3)c2-c2ccccc2)C=C1,log(activity),Escherichia coli [1],3
same,log(activity),Staphylococcus aureus [2],5
CN(CCN(C)c1ccc2nc3ccc(N(C)C)cc3[s+]c2c1)Cc1ccc(-c2cc3cc([N+](=O)[O-])ccc3[nH]2)cc1.Cl,log(activity),Escherichia coli [3],4
same,log(activity),Acinetobacter baumannii [4],5
same,log(activity),Staphylococcus aureus [5],3
CCNc1cc2[s+]c3cc(NCC)c(C)cc3nc2cc1C.[Cl-],log(activity),Acinetobacter baumannii [6],6
same,log(activity),Acinetobacter baumannii [7],3
same,log(activity),Pseudomonas aeruginosa [8],3
CN(CCN(C)c1ccc2nc3ccc(N(C)C)cc3[s+]c2c1)C(=O)c1ccc(-c2cc3cc([N+](=O)[O-])ccc3[nH]2)cc1.Cl,log(activity),Escherichia coli [3],6
same,log(activity),Acinetobacter baumannii [4],4
same,log(activity),Staphylococcus aureus [5],6
O=[N+]([O-])c1ccc(-c2c3nc(c(-c4ccc([N+](=O)[O-])cc4)c4ccc([nH]4)c(-c4ccc([N+](=O)[O-])cc4)c4nc(c(-c5ccc([N+](=O)[O-])cc5)c5ccc2[nH]5)C=C4)C=C3)cc1,log(activity),Pseudomonas aeruginosa [9],2
Cc1cc(N(C)C)cc2[s+]c3cc(N(C)C)cc(C)c3nc12.[Cl-],log(activity),Staphylococcus aureus [10],99%
CN(C)c1ccc2nc3ccc(N4CCN(CCCOc5ccccc5NC(=O)Nc5ccc6ccccc6c5)CC4)cc3[s+]c2c1.[Cl-],log(activity),Escherichia coli [3],3
same,log(activity),Staphylococcus aureus [5],3
C[n+]1cccc(-c2c3nc(c(-c4ccc[n+](C)c4)c4ccc([nH]4)c(-c4ccc[n+](C)c4)c4nc(c(-c5ccc[n+](C)c5)c5ccc2[nH]5)C=C4)C=C3)c1,log(activity),Escherichia coli [11],6
same,log(activity),Escherichia coli [12],7
COc1cc(/C=C/C(=O)CC(=O)/C=C/c2ccc(O)c(OC)c2)ccc1O [CURCUMIN],log(activity),Staphylococcus aureus [13],7
same,log(activity),Enterococcus faecalis [14],10
CC1=C(CCC(=O)O)c2cc3[nH]c(cc4nc(cc5[nH]c(cc1n2)c(C)c5C(C)O)C(C)=C4C(C)O)c(C)c3CCC(=O)O (stereo not drawn) [HEMATOPORPHYRIN],log(activity),Escherichia coli [11],<6
same,log(activity),Staphylococcus aureus [15],>6
Cc1cc(O)c2c(=O)c3c(O)cc(O)c4c5c(O)cc(O)c6c(=O)c7c(O)cc(C)c8c1c2c(c34)c(c78)c65 [HYPERICIN],log(activity),Staphylococcus aureus [16],>0.6
same,log(activity),Staphylococcus aureus [17],>0.6
same,log(activity),Staphylococcus aureus [18],>6
same,log(activity),Escherichia coli [19],0.06
same,log(activity),Staphylococcus aureus [20],>6
CN(C)c1ccc2nc3ccc(N(C)C)cc3[s+]c2c1.[Cl-] [METHYLENE BLUE ANHYDROUS],log(activity),Staphylococcus aureus [21],6
same,log(activity),Pseudomonas aeruginosa [22],1.1
same,log(activity),Pseudomonas aeruginosa [23],4.1
same,log(activity),Pseudomonas aeruginosa [24],6
same,log(activity),Pseudomonas aeruginosa [25],6
same,log(activity),Staphylococcus aureus [26],7.3
same,log(activity),Staphylococcus aureus [27],2.38
same,log(activity),Enterococcus faecalis [28],0.7
same,log(activity),Staphylococcus aureus [29],6
same,log(activity),Staphylococcus aureus [30],5
C[n+]1ccc(-c2c3nc(c(-c4cc[n+](C)cc4)c4ccc([nH]4)c(-c4cc[n+](C)cc4)c4ccc([nH]4)c(-c4cc[n+](C)cc4)c4nc2C=C4)C=C3)cc1 [TMPYP4],log(activity),Staphylococcus aureus [31],7
same,log(activity),Escherichia coli [1],7
same,log(activity),Staphylococcus aureus [2],7
Cc1cc2nc3ccc(N(C)C)cc3[s+]c2cc1N.[Cl-] [TOLONIUM CHLORIDE],log(activity),Klebsiella aerogenes,>8
same,log(activity),Staphylococcus aureus [32],2.21
same,log(activity),Acinetobacter baumannii [33],3
same,log(activity),Staphylococcus aureus [34],5.83
same,log(activity),Pseudomonas aeruginosa [35],2.36
same,log(activity),Escherichia coli [36],0.08
same,log(activity),Pseudomonas aeruginosa [37],2.2
same,log(activity),Staphylococcus aureus [38],2.66
same,log(activity),Bacillus subtilis,>6
